# Paper PMC12152147, “DDB1 engagement defines the selectivity of S656 analogs for cyclin K degradation over CDK inhibition” (EMBO Reports, 2025)
# Where “and” joins values, the source holds several entries; their conditions need not be identical. Identical values can stand only once. Like-named read-outs stand apart in the source and are kept apart here.
# How the values were obtained:
# OCI-AML5 cells = experiment: Dose-response proliferative assay in OCI-AML5 (4 days, CellTiterGlo); assay type: cell-based, H. sapiens
# Procedure, shortened: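 OCI-AML5 cells in αMEM, 10% heat-inactivated FBS plus 10 ng/mL GM-CSF, 300 cells/well, exposed to 8-point 1:4 serial dilutions (10 μM down to 0.5 nM). Viability read after 4 days in culture at 37 °C, 5% CO2.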
# cyclin KeGFP = experiment: Cyclin KeGFP reporter system (eGFP/mCherry MFI by flow cytometry);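 for % degradation cyclin K-eGFP: 10 μM compound for 3 h relative to DMSO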; assay type: cell-based, H. sapiens
# Procedure, shortened: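 OCI-AML5 clone G7 carrying lentiviral cyclin KeGFP/mCherry reporter. eGFP and mCherry geometric MFI measured by flow cytometry; eGFP/mCherry ratio normalized to DMSO-treated cells.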
# CDK12/Cyclin K = target: T1, CDK12/Cyclin K (Homo sapiens, UniProt Q9NYV4); experiment: CDK12/CyclinK in vitro kinase assay (BPS kit, Kinase Glo MAX); assay type: biochemical; conditions: for in vitro inhibition of CDK12/Cyclin K activity: in % (unit assumed)
# T1 construct: purchased BPS Bioscience 78298
# T1 sequence (Q9NYV4 whole entry): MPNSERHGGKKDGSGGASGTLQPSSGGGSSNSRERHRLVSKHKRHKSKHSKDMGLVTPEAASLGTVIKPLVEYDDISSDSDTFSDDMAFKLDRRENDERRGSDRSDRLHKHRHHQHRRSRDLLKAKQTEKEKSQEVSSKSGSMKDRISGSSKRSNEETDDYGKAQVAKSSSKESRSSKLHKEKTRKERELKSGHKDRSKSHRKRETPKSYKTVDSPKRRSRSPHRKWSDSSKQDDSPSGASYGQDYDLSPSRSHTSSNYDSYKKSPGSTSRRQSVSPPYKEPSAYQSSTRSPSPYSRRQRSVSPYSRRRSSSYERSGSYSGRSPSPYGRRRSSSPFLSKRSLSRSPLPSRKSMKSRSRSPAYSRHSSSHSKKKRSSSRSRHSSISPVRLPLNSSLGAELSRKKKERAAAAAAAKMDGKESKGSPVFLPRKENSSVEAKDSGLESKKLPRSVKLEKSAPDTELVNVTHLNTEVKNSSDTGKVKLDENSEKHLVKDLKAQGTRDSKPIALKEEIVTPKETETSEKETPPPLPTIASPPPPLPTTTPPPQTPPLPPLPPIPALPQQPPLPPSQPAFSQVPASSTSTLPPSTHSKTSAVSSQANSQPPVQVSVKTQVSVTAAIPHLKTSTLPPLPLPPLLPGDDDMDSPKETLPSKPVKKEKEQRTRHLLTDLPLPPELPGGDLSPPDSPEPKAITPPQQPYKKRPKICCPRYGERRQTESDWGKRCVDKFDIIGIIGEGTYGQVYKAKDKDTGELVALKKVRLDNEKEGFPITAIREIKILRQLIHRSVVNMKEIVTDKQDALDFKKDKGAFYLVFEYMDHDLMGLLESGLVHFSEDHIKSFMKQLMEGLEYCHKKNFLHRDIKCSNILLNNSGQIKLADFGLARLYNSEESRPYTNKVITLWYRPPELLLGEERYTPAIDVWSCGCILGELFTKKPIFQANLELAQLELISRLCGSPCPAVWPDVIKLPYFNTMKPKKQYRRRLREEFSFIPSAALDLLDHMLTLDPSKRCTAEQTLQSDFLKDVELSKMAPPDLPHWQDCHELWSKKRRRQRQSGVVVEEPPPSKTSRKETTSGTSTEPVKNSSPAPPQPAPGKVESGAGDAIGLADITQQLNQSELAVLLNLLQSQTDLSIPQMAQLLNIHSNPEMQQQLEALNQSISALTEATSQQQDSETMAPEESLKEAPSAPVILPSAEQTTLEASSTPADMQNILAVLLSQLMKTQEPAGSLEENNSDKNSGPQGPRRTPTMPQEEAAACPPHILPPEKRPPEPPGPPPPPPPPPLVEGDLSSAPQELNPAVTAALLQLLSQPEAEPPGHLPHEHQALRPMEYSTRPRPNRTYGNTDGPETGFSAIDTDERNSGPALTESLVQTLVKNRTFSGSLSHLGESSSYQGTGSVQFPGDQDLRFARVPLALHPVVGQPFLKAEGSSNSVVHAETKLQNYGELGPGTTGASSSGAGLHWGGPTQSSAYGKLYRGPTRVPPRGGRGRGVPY
# T1 sequence (O75909 whole entry partner): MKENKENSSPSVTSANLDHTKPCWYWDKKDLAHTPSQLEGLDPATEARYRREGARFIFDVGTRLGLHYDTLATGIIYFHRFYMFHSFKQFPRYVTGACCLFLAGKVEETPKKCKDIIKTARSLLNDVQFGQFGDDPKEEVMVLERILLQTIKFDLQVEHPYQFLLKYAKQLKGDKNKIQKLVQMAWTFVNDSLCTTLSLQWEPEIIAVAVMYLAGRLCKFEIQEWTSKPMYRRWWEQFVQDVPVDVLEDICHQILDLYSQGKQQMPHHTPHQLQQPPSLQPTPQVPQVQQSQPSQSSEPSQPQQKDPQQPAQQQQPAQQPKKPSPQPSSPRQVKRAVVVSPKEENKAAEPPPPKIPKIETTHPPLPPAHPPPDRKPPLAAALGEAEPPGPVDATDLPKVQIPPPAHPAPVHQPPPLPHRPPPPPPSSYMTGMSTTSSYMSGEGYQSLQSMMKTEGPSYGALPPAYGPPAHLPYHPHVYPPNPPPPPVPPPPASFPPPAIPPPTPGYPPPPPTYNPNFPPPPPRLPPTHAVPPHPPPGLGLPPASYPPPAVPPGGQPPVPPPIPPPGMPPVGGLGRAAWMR
# Procedure: (§1) Kinase activity was assessed using the kinase assay kits from BPS Bioscience for CDK1, CDK9 and CDK12 with Kinase Glo MAX in duplicates. Compounds were tested at a single concentration of 1 μM for CDK1 and CDK9 activity, and in a dilution ranging from 0.64 nM to 50 μM for CDK12 activity. Chemiluminescence was read using the Neo Synergy BioTek plate reader.
# [1] = test system: OCI-AML5 cells expressing shRNA targeting CUL4A or CUL4B; experiment: Dose response in OCI-AML5 expressing shRNAs targeting CUL4A, CUL4B or control; assay type: cell-based, H. sapiens
# CDK9/CyclinT = target: T2, CDK9/CyclinT (Homo sapiens, UniProt P50750); experiment: CDK9/CyclinT in vitro kinase activity, single concentration 1 μM; assay type: biochemical
# T2 construct: purchased BPS Bioscience 79628
# T2 sequence (P50750 whole entry): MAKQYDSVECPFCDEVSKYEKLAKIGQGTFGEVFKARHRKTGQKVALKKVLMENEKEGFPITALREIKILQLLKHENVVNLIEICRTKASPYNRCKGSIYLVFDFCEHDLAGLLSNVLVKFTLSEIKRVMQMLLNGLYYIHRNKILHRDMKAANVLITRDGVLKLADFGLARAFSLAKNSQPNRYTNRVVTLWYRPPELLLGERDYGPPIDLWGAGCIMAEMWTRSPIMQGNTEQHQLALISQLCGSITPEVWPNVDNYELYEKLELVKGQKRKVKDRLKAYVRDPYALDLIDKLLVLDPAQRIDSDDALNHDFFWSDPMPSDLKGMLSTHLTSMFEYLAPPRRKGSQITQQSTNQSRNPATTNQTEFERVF
# T2 sequence (O60563 whole entry partner): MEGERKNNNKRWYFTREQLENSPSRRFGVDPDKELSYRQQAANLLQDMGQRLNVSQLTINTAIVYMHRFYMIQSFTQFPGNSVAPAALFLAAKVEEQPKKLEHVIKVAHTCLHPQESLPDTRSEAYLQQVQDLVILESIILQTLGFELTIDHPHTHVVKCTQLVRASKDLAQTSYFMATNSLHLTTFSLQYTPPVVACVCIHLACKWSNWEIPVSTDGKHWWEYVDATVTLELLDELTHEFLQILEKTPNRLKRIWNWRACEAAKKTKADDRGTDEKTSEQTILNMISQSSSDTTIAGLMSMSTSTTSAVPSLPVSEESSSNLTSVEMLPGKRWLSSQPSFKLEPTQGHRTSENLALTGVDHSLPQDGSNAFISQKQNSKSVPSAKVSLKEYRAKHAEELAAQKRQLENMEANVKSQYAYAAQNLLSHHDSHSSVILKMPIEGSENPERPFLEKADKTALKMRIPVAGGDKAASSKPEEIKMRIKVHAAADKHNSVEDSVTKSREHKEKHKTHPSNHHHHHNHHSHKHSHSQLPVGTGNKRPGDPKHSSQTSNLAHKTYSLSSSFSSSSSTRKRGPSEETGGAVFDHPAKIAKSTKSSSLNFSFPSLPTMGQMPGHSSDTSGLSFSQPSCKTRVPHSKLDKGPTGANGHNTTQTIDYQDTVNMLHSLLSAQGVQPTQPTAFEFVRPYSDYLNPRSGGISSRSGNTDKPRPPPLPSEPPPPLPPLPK
# Procedure: as §1
# primary AML specimens = experiment: Dose-response assays in primary AML specimens (6 days, CellTiterGlo); assay type: cell-based, human; conditions: Homo sapiens, 144 h
# Procedure, shortened: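 Primary AML cells in IMDM/15% BIT with SCF, FLT3L, IL3, G-CSF, SR1 and UM729 were exposed to 8-point 1:4 dilutions (10 μM to 0.5 nM) for 6 days. Viability came from CellTiterGlo luminescence, with % inhibition versus DMSO (0.1%) fitted by nonlinear regression.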
# [2] = test system: OCI-AML5 cells expressing shRNAs targeting CDK1, 2, 4, 7, 9, cyclin K; experiment: Dose response in OCI-AML5 expressing shRNAs targeting CDK1, 2, 4, 7, 9, cyclin K or control; assay type: cell-based, H. sapiens
# CDK1 = target: T3, CDK1 (Homo sapiens, UniProt P06493); experiment: CDK1 in vitro kinase activity, single concentration 1 μM; assay type: biochemical
# T3 construct: purchased BPS Bioscience 79597
# T3 sequence (P06493 whole entry): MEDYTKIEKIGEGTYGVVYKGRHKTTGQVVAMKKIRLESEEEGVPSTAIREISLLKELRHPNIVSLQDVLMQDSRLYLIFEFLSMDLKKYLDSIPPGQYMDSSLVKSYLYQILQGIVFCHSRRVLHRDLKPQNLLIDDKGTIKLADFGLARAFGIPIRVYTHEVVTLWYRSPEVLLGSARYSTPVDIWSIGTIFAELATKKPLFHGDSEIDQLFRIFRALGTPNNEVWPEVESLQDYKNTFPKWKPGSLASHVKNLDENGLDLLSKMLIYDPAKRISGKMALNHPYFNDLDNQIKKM
# T3 sequence (P14635 whole entry partner): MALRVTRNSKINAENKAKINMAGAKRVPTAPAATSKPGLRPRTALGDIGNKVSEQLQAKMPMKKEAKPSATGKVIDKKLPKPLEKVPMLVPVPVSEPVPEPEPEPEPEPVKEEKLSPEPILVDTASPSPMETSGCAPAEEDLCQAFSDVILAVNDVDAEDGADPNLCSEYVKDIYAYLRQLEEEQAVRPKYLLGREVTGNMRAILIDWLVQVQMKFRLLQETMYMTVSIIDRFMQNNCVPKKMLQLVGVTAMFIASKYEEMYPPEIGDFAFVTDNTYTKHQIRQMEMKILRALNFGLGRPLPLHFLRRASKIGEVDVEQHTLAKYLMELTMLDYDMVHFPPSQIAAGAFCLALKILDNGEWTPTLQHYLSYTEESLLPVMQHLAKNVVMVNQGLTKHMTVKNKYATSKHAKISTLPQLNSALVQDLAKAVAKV
# Procedure: as §1
structure (smiles),measurement,setting,value
CN(C)c1ccc(CC(=O)Nc2ncc(SCc3cccnc3)s2)cc1 [S656],IC50,"OCI-AML5 cells; Homo sapiens, OCI-AML-5, 96 h, 4 days incubation, read-out: IC50 OCI-AML5",743 nM
same,IC50,"OCI-AML5 cells; Homo sapiens, OCI-AML-5, 96 h, OCI-AML5, regular media, 4 days, read-out: S656 IC50, Media",949 nM
same,IC50,"OCI-AML5 cells; OCI-AML5, regular media, 4 days, read-out: S656 IC50, Media",675 nM and 712 nM
same,% cyclin KeGFP degradation,"cyclin KeGFP; 3 h, 10 μM, compared to DMSO, OCI-AML5 G7 clone",75%
same,MFI of cyclin KeGFP over mCherry,"cyclin KeGFP; OCI-AML5 G7 clone, 3 h, 10 μM, normalized to DMSO (=100)",23.8 and 23.9 and 23.3 and 23.2 and 22.8
same,% degradation cyclin K-eGFP,cyclin KeGFP; cyclin K-eGFP reporter,75%
same,in vitro inhibition of CDK12/Cyclin K activity,CDK12/Cyclin K; Log10 (uM) 0.30103,29.97 and 30.05 and 16.95
same,in vitro inhibition of CDK12/Cyclin K activity,CDK12/Cyclin K; Log10 (uM) 1,64.47 and 62.45 and 59.28
same,in vitro inhibition of CDK12/Cyclin K activity,CDK12/Cyclin K; Log10 (uM) 1.69897,82.67 and 75.84 and 109.95
same,IC50,"CDK12/Cyclin K; read-out: IC50, in vitro inhibition of CDK12/Cyclin K activity",6000 nM
same,"potency upon CUL4A or CUL4B downregulation (for SNS-032, THZ531 also DDB1 depletion)","[1]; OCI-AML5, 4 days",impaired
same,Ratio shCUL4A/shCTRL,[1]; ratio of IC50 in shCUL4A vs shCTRL OCI-AML5 cells,2.79
same,in vitro inhibitory activity for CDK9,CDK9/CyclinT; 1 μM,displays in vitro inhibitory activity
same,inhibition at 1 µM,CDK9/CyclinT; single concentration 1 μM,59%
same,IC50,"primary AML specimens; primary AML specimen 03H109, 6 days, read-out: IC50",761 nM
same,IC50,"primary AML specimens; primary AML specimen 04H055, 6 days, read-out: IC50",1040 nM
same,IC50,"primary AML specimens; primary AML specimen 04H096, 6 days, read-out: IC50",846 nM
same,IC50,"primary AML specimens; primary AML specimen 04H138, 6 days, read-out: IC50",1990 nM
same,IC50,"primary AML specimens; primary AML specimen 05H113, 6 days, read-out: IC50",897 nM
same,IC50,"primary AML specimens; primary AML specimen 05H149, 6 days, read-out: IC50",1380 nM
same,IC50,"primary AML specimens; primary AML specimen 05H193, 6 days, read-out: IC50",999 nM
same,IC50,"primary AML specimens; primary AML specimen 06H088, 6 days, read-out: IC50",1260 nM
same,IC50,"primary AML specimens; primary AML specimen 06H117, 6 days, read-out: IC50",983 nM
same,IC50,"primary AML specimens; primary AML specimen 06H151, 6 days, read-out: IC50",683 nM
same,IC50,"primary AML specimens; primary AML specimen 07H003, 6 days, read-out: IC50",2190 nM
same,IC50,"primary AML specimens; primary AML specimen 07H131, 6 days, read-out: IC50",2680 nM
same,IC50,"primary AML specimens; primary AML specimen 07H144, 6 days, read-out: IC50",999 nM
same,IC50,"primary AML specimens; primary AML specimen 07H155, 6 days, read-out: IC50",2440 nM
same,IC50,"primary AML specimens; primary AML specimen 08H018, 6 days, read-out: IC50",2210 nM
same,IC50,"primary AML specimens; primary AML specimen 08H021, 6 days, read-out: IC50",1010 nM
same,IC50,"primary AML specimens; primary AML specimen 08H056, 6 days, read-out: IC50",2130 nM
same,IC50,"primary AML specimens; primary AML specimen 08H063, 6 days, read-out: IC50",2380 nM
same,IC50,"primary AML specimens; primary AML specimen 08H085, 6 days, read-out: IC50",1010 nM
same,IC50,"primary AML specimens; primary AML specimen 08H108, 6 days, read-out: IC50",826 nM
same,IC50,"primary AML specimens; primary AML specimen 08H118, 6 days, read-out: IC50",887 nM
same,IC50,"primary AML specimens; primary AML specimen 09H016, 6 days, read-out: IC50",974 nM
same,IC50,"primary AML specimens; primary AML specimen 09H070, 6 days, read-out: IC50",2240 nM
same,IC50,"primary AML specimens; primary AML specimen 10H014, 6 days, read-out: IC50",852 nM
same,IC50,"primary AML specimens; primary AML specimen 10H046, 6 days, read-out: IC50",972 nM
same,IC50,"primary AML specimens; primary AML specimen 10H107, 6 days, read-out: IC50",1560 nM
same,IC50,"primary AML specimens; primary AML specimen 10H127, 6 days, read-out: IC50",1440 nM
same,IC50,"primary AML specimens; primary AML specimen 10H161, 6 days, read-out: IC50",1170 nM
same,IC50,"primary AML specimens; primary AML specimen 10H174, 6 days, read-out: IC50",887 nM
same,IC50,"primary AML specimens; primary AML specimen 11H008, 6 days, read-out: IC50",1450 nM
same,IC50,"primary AML specimens; primary AML specimen 11H019, 6 days, read-out: IC50",1090 nM
same,IC50,"primary AML specimens; primary AML specimen 11H170, 6 days, read-out: IC50",2330 nM
same,IC50,"primary AML specimens; primary AML specimen 11H217, 6 days, read-out: IC50",1240 nM
same,IC50,"primary AML specimens; primary AML specimen 11H232, 6 days, read-out: IC50",1130 nM
same,IC50,"primary AML specimens; primary AML specimen 12H033, 6 days, read-out: IC50",2380 nM
same,IC50,"primary AML specimens; primary AML specimen 12H055, 6 days, read-out: IC50",1390 nM
same,IC50,"primary AML specimens; primary AML specimen 12H148, 6 days, read-out: IC50",1480 nM
same,IC50,"primary AML specimens; primary AML specimen 13H053, 6 days, read-out: IC50",2190 nM
same,IC50,"primary AML specimens; primary AML specimen 15H045, 6 days, read-out: IC50",680 nM
same,IC50,"primary AML specimens; primary AML specimen 17H065, 6 days, read-out: IC50",1550 nM
same,IC50,"primary AML specimens; read-out: median IC50 in a panel of 40 primary AMLs, 6 days",1210 nM
same,IC50,"[2]; Homo sapiens, OCI-AML-5, 96 h, OCI-AML5, 4 days, read-out: IC50, sh CDK1",499 nM
same,IC50,"[2]; Homo sapiens, OCI-AML-5, 96 h, OCI-AML5, 4 days, read-out: IC50, sh CDK2",842 nM
same,IC50,"[2]; Homo sapiens, OCI-AML-5, 96 h, OCI-AML5, 4 days, read-out: IC50, sh CDK4",577 nM
same,IC50,"[2]; Homo sapiens, OCI-AML-5, 96 h, OCI-AML5, 4 days, read-out: IC50, sh CDK7",791 nM
same,IC50,"[2]; Homo sapiens, OCI-AML-5, 96 h, OCI-AML5, 4 days, read-out: IC50, sh CDK9",548 nM
same,IC50,"[2]; Homo sapiens, OCI-AML-5, 96 h, OCI-AML5, 4 days, read-out: IC50, sh Cyclin K",175 nM
same,IC50,"[2]; Homo sapiens, OCI-AML-5, 96 h, OCI-AML5, 4 days, read-out: IC50, sh ctrl",756 nM
same,IC50,"[2]; Homo sapiens, OCI-AML-5, OCI-AML5 expressing shRNA CCNK (cyclin K), read-out: IC50 shRNA CCNK",194 nM
same,IC50,"[2]; Homo sapiens, OCI-AML-5, OCI-AML5 expressing shRNA CDK1, read-out: IC50 shRNA CDK1",478 nM
same,IC50,"[2]; Homo sapiens, OCI-AML-5, OCI-AML5 expressing shRNA CDK2, read-out: IC50 shRNA CDK2",794 nM
same,IC50,"[2]; Homo sapiens, OCI-AML-5, OCI-AML5 expressing shRNA CDK4, read-out: IC50 shRNA CDK4",690 nM
same,IC50,"[2]; Homo sapiens, OCI-AML-5, OCI-AML5 expressing shRNA CDK9, read-out: IC50 shRNA CDK9",548 nM
same,IC50,"[2]; OCI-AML5, 4 days, read-out: IC50, sh CDK1",480 nM
same,IC50,"[2]; OCI-AML5, 4 days, read-out: IC50, sh CDK2",928 nM and 685 nM
same,IC50,"[2]; OCI-AML5, 4 days, read-out: IC50, sh CDK4",744 nM and 662 nM
same,IC50,"[2]; OCI-AML5, 4 days, read-out: IC50, sh CDK7",774 nM and 662 nM
same,IC50,"[2]; OCI-AML5, 4 days, read-out: IC50, sh CDK9",589 nM and 628 nM
same,IC50,"[2]; OCI-AML5, 4 days, read-out: IC50, sh Cyclin K",288 nM and 186 nM
same,IC50,"[2]; OCI-AML5, 4 days, read-out: IC50, sh ctrl",713 nM and 664 nM
same,Class,[2]; class from shRNA IC50 profile and cyclin K-eGFP degradation,mixed 1-2
same,in vitro inhibitory activity for CDK1,CDK1; 1 μM,displays in vitro inhibitory activity
same,inhibition at 1 µM,CDK1; single concentration 1 μM,70%
